Test results from ChEMBL document CHEMBL1201862, “PubChem BioAssay data set” (2004).
Active and inactive are the calls of the source. Rule as the data show it, for most assays here: actives have a measured EC50 and inactives only a lower limit.

Tests used:
Protein RecA = target: T1, Protein RecA (Mycobacterium tuberculosis, UniProt P9WHJ3); experiment: Fluorescence Cell-Free Homogeneous Dose Retest to Identify Inhibitors of RecA-Intein Splicing Activity. [Related pubchem assays (depositor defined):AID2097, AID2223, AID489010, AID492950]; format: functional
T1 sequence (P9WHJ3 whole entry): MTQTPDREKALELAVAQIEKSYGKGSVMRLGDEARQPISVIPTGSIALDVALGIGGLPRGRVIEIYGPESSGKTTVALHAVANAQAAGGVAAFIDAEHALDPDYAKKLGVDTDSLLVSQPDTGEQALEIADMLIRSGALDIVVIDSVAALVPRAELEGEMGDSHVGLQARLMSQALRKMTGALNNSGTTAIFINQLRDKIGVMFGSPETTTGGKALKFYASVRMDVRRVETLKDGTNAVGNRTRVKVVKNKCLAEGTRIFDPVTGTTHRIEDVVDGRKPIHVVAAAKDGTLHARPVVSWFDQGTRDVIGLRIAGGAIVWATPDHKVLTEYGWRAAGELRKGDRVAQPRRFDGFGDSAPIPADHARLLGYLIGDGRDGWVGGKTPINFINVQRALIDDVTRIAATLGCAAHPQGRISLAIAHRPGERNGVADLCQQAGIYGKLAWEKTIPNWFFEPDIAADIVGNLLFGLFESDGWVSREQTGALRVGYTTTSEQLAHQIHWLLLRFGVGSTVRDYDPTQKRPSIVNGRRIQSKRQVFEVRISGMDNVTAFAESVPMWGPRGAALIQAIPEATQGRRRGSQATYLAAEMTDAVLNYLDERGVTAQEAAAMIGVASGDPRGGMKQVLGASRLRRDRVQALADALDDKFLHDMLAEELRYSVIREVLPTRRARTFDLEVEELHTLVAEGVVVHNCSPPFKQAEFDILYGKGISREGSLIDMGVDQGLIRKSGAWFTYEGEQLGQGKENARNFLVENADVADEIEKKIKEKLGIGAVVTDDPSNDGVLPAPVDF

[1] = target: T2, Replicative DNA helicase DnaB (Mycobacterium tuberculosis, UniProt P9WMR3); experiment: DnaB intein splicing inhibitors, dose response, biochemical, cell-free fluorescence (AID 449749); format: functional
T2 sequence (P9WMR3 whole entry): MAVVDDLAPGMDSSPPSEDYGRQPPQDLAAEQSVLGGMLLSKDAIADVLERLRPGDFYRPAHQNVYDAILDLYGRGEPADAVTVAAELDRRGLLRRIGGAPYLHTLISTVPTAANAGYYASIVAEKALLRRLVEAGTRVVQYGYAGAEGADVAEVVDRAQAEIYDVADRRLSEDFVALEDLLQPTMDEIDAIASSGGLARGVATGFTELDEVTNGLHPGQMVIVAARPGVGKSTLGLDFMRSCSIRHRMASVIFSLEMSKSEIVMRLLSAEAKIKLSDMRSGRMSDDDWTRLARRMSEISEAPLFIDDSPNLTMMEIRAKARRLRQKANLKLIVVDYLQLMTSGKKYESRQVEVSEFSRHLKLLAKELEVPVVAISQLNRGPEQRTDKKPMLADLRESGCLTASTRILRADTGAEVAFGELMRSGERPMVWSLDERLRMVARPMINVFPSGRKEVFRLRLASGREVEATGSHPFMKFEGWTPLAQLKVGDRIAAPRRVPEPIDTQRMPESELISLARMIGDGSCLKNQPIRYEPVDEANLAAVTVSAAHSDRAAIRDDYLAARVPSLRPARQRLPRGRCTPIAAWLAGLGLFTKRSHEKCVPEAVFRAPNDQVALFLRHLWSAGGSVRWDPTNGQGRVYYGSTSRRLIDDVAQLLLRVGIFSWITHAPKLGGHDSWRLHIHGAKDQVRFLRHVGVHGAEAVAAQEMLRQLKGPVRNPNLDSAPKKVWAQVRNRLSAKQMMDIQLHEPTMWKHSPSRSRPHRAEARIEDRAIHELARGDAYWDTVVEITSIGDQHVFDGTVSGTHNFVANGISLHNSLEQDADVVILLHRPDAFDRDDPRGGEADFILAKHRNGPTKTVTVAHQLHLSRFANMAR

H4 = experiment: Luminescence Cell-Based Dose Response HTS to Identify Activators of 5'UTR Stem-Loop Driven Prion Protein mRNA Translation in H4 Neuroglioblastoma Cells. [Related pubchem assays: 1829 (Project Summary), 1814 (Primary HTS)]; format: functional; settings: Homo sapiens
[2] = Luminescence Cell-Based Dose Response HTS to Identify Activators of Luciferase Translation or Activity in H4 […] Cells. [Related pubchem assays: 1829 (Project Summary), 1814 (Primary HTS)]; format: functional
[3] = target: T3, Heat shock factor protein 1 (Mus musculus, UniProt P38532); experiment: decrease of HSF1-responsive luciferase luminescence – cell-based, NIH3T3, dose retest, confirmation (AID 2382); format: functional;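 also: NIH3T3 fibroblasts with HSF1-driven luciferase reporter stressed by proteasome inhibitor MG132; luminescence from HSF1-driven luciferase expression after 8 hours of MG132 stress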
T3 sequence (P38532 whole entry): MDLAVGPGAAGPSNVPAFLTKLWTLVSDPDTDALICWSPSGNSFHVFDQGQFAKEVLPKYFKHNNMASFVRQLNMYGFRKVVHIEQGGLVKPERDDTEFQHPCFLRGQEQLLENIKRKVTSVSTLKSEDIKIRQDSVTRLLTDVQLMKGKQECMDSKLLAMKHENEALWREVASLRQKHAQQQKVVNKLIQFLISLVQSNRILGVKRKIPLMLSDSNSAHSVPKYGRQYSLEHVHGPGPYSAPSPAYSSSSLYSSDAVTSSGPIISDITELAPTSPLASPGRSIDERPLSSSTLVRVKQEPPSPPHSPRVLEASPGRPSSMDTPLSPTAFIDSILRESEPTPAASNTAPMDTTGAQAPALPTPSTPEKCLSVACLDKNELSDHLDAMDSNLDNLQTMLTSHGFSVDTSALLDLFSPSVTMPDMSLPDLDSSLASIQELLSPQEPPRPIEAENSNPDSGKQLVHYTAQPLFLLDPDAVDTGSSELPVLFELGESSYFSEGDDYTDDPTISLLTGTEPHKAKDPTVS

Streptokinase A = target: T4, Streptokinase A (Streptococcus pyogenes serotype M1, UniProt P10520); experiment: viability-normalized secreted streptokinase activity reduction – plasminogen activation absorbance, OD405, dose response (AID 1914); format: functional, Streptococcus pyogenes M1 GAS;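 also: secreted streptokinase activity via plasminogen activation per viability signal from cell pellet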
T4 sequence (P10520 whole entry): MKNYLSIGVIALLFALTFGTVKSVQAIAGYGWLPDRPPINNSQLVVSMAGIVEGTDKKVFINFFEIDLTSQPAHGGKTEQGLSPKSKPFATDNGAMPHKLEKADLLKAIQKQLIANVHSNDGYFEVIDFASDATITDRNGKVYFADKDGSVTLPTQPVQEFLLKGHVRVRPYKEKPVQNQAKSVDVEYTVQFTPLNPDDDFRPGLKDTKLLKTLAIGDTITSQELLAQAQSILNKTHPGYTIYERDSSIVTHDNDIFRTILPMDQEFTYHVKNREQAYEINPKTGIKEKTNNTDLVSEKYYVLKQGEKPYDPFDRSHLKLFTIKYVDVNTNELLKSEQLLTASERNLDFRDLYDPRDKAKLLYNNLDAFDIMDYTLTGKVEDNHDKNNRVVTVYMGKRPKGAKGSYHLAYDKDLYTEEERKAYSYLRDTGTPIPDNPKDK

Streptococcus = experiment: GAS UMAA2166 growth inhibition – luminescence, BacTiterGlo, counter-screen for streptokinase expression inhibitor project, dose response (AID 1915); format: functional, organism-based;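 also: potency for reduction of bacterial viability or growth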
[4] = system: Streptococcus sp. 'group A'; experiment: Streptococcus pyogenes SK(-)GAS viability under kanamycin – luminescence, BacTiterGlo, confirmation, counter-screen for streptokinase expression inhibitor project, dose response (AID 1900); format: functional, organism-based
Cytochrome P450 3A4 = Cytochrome P450 3A4 (Homo sapiens, UniProt P08684);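 also: CYP3A4 tested as one member of a cytochrome P450 panel screen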
Cytochrome P450 2D6 = Cytochrome P450 2D6 (Homo sapiens, UniProt P10635);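 also: CYP2D6 member of a cytochrome P450 panel assay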
Sequence of Cytochrome P450 2D6 (P10635 whole entry): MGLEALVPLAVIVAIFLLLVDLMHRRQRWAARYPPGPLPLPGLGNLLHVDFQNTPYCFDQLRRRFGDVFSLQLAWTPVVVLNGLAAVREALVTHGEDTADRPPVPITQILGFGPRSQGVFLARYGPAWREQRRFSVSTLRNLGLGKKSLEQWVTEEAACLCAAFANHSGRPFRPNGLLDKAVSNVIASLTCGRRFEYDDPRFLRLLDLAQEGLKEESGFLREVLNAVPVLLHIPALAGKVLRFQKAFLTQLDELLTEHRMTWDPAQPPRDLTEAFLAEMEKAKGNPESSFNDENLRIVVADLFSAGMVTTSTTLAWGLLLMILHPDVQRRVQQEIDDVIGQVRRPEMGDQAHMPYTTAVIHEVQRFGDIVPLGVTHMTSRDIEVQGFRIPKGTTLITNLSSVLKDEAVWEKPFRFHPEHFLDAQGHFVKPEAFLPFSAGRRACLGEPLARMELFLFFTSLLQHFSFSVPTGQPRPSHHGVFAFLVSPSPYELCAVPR

Sequence of Cytochrome P450 3A4 (P08684 whole entry): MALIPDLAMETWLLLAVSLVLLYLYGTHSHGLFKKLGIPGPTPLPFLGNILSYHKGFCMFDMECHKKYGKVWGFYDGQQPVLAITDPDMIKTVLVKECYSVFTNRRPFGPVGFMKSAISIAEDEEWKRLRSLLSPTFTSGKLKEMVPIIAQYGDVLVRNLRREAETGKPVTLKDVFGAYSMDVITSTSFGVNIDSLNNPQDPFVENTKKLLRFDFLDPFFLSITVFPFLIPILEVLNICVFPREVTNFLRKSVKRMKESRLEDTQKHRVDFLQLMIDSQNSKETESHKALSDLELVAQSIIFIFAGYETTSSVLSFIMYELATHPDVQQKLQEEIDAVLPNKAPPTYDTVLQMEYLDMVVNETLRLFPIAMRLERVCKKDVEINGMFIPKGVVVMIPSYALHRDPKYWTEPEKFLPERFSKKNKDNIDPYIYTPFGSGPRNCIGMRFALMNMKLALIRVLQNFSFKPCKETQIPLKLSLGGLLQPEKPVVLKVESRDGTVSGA

SMILES	EC50 [3]	EC50 (Streptokinase A)	EC50 (Streptococcus)	EC50 [4]	further results
ClCc1nnc(-c2cc3c(s2)CCCC3)o1					EC50 (Protein RecA): 3.55 µM (active); AC50 [1]: 10.7 µM (active)
Cc1cc(=O)n2nc(-c3ccc(C(F)(F)F)cc3)sc2n1	> 195 µM (not active)				EC50 (H4): 8.75 µM (active); EC50 [2]: > 120 µM (not active)
CN(CC(=O)Nc1ccc(F)cc1)C(=O)COC(=O)c1cc(S(=O)(=O)N(C)C)ccc1N1CCCC1	> 195 µM (not active)				
COc1ccc(CCNCC(O)Cn2ccc3ccccc32)cc1OC (stereo not given)	> 100 µM (not active)				
CCCn1c(N2CCN(CC(=O)NCc3cccs3)CC2)nc2ccccc21	> 195 µM (not active)				
C=CCSc1nc(-c2ccccc2)c2cc(Cl)ccc2n1		29.4 µM (active)	46.4 µM (active)	15 µM (active)	
Cc1ccc(Cn2c(Sc3ncccn3)nc3c2c(=O)[nH]c(=O)n3C)cc1	> 195 µM (not active)				
CCN(CC(=O)Nc1ccccc1C(F)(F)F)C(=O)c1cc(-c2ccccc2)nn1-c1ccccc1		23.9 µM (active)	> 150 µM (not active)	19.9 µM (active)	
O=C(CSc1nnc(CNC(=O)c2ccc(F)cc2)o1)NCc1ccccc1		> 150 µM (not active)	> 150 µM (not active)	> 150 µM (not active)	
CNC(=O)c1ccsc1NC(=O)c1ccc(Cl)s1	> 195 µM (not active)				
CCn1c(SCC(=O)N2CC(C)OC(C)C2)nc2c3ccccc3nc-2c1O (stereo not given)		> 150 µM (not active)	> 150 µM (not active)	> 150 µM (not active)	
O=C(OC(C(=O)NC1CCCC1)c1ccncc1)C1=Cc2ccccc2OC1 (stereo not given)	> 195 µM (not active)				
Oc1cc(-c2ccccc2)n[nH]1					EC50 (Protein RecA): 0.517 µM (active); AC50 [1]: 1.43 µM (active)
CCOC(=O)c1cccc(NC(=S)N2CCN(c3ncc4c(=O)c(C(=O)O)cn(CC)c4n3)CC2)c1		> 150 µM (not active)	29.9 µM (active)	5.98 µM (active)	
O=C(c1cc(Br)c[nH]1)N1CCSCC1	> 195 µM (not active)				
COc1cc(/C=C2/C(=O)N(c3ccc(Br)cc3)N=C2C)cc(OC)c1OC					EC50 (Protein RecA): 12.4 µM (active); AC50 [1]: 4.08 µM (active)
CCOc1ccc(N(CC(=O)NN=C2CCCC2)S(C)(=O)=O)cc1	> 195 µM (not active)				
COc1cccc(-n2nc(-c3ccnn3-c3cccc(Cl)c3)c(=O)n(C)c2=O)c1	> 195 µM (not active)				

SMILES	EC50 [3]	EC50 (Streptokinase A)	EC50 (Streptococcus)	EC50 [4]	further results
CCN(c1ccc(OC)cc1)S(=O)(=O)c1nnc(NC(=O)c2ccccc2Cl)s1		5.58 µM (active)	99.3 µM (active)	9.51 µM (active)	
CCCCN(C(=O)c1cccc2c(=O)c(C)c(-c3ccccc3)oc12)c1ccccc1					EC50 (Protein RecA): 15.2 µM (active); AC50 [1]: 4.15 µM (active)
CCCc1n[nH]c2c1C(c1ccc(OC)cc1OC)C(C#N)=C(N)O2 (stereo not given)					EC50 (Protein RecA): 4.07 µM (active); AC50 [1]: 6.28 µM (active)
Cc1cc(C)c2c(n1)sc1c(O)nc(SCc3ccccc3)nc12	> 195 µM (not active)				
COc1ccc(C(=O)CSc2nnc(CNC(=O)c3ccc(S(=O)(=O)N(C)C)cc3)o2)cc1		> 150 µM (not active)	> 150 µM (not active)	> 150 µM (not active)	
COc1ccc(-c2cc(C3CCN(c4ncccc4[N+](=O)[O-])CC3)[nH]n2)cc1		> 150 µM (not active)	13 µM (active)	4.96 µM (active)	
O=C(CN1C(=O)NC(Cc2ccccc2)C1=O)Nc1ccc(OC(F)F)cc1 (stereo not given)	> 195 µM (not active)				
Clc1ccc2[nH]c(-c3ccc(Cl)nc3)nc2c1					EC50 (H4): > 120 µM (not active); EC50 [2]: 22.3 µM (active)
Cc1ccc(Cn2c(=O)n(Cc3ccco3)c(=O)c3ccccc32)cc1		> 150 µM (not active)	> 150 µM (not active)	21.1 µM (active)	
COc1ccc(CCNCc2ccsc2)cc1OC	> 195 µM (not active)				
Cc1onc(-c2ccccc2Cl)c1C(=O)Nc1ccc(OCC(=O)N2CCOCC2)cc1	> 195 µM (not active)				
COc1ccc(C2/C(=C(\O)c3ccccc3)C(C)=Nc3nc4ccccc4n32)c(OC)c1 (stereo not given)		> 150 µM (not active)	37.3 µM (active)	14.5 µM (active)	
CCOC(=O)c1ccc(CC2S/C(=C(\C#N)C(C)=O)NC2=O)cc1 (stereo not given)					EC50 (Protein RecA): > 380 µM (inactive); AC50 [1]: > 380 µM (inactive)
CN1CCN(S(=O)(=O)c2ccc(Oc3ccc(F)c(Cl)c3)nc2)CC1	> 195 µM (not active)				
COCCn1c(N)c(Sc2ccccc2[N+](=O)[O-])c(=O)[nH]c1=O	> 195 µM (not active)				
COc1ccc(/C(C)=N/NC(=O)CNC(=O)/C=C\c2ccccc2)c(OC)c1	> 195 µM (not active)				
O=C(Nc1ncc(Cc2cccc(Cl)c2)s1)c1cccs1		> 150 µM (not active)	7.17 µM (active)	3.67 µM (active)	AC50 (Cytochrome P450 3A4): 15.8 µM (inconclusive); AC50 (Cytochrome P450 2D6): 7.08 µM (inconclusive)
Oc1ccc(Nc2nc(-c3ccc(O)cc3)cs2)cc1					EC50 (Protein RecA): 43.8 µM (active); AC50 [1]: 111 µM (active)
